According to patent US4258034A, “Lactobionic acid poly(H-sulfate) and salts thereof useful as complement inhibitors” (American Cyanamid Company, priority 1979, dated 1981):
Structures can show the parent of a compound that is named as a salt.

Assays:
Settings in all cases: activity in wells, twofold serial dilution assay; higher well number indicates higher activity
shunt pathway = assay: Test Code 036 (C-Shunt inhibitor), lysis of fragile human erythrocytes in autologous serum, cobra venom factor activated; format: cell-based
Description: (§1) An active inhibitor protects C2 from C1 and C4; (ii) Test Code 035 (C3-C9 inhibitor)--This test determines the ability of the late components of human complement (C3-C9) to lyse EAC 142 in the presence of appropriate dilutions of the test compound. An active inhibitor protects EAC 142 from lysis by human C3-C9; (iii) Test Code 036 (C-Shunt inhibitor)--In this test human erythrocytes rendered fragile are lysed in autologous serum via the shunt pathway activated by cobra venom factor in the presence of appropriate dilutions of the test compound. Inhibition of the shunt pathway results in failure of lysis; (iv) Forssman Vasculitis Test--Here, the well known complement dependent lesion, Forssman vasculitis, is produced in guinea pigs by intradermal injection of rabbit anti-Forssman antiserum. […]

activated human C1 = assay: Test Code 026 (C1 inhibitor); format: biochemical
Description: as §1

[1] = test system: late components of human complement (C3-C9); assay: Test Code 035 (C3-C9 inhibitor), lysis of EAC 142; format: biochemical
Description: as §1

Compound	Shunt Inhibition 036 Wells (shunt pathway)	C1 026 Wells (activated human C1)	C-Late 035 Wells [1]
O=C(O)[C@H](OS(=O)(=O)O)[C@@H](OS(=O)(=O)O)[C@H](O[C@@H]1O[C@H](COS(=O)(=O)O)[C@H](OS(=O)(=O)O)[C@H](OS(=O)(=O)O)[C@H]1OS(=O)(=O)O)[C@@H](COS(=O)(=O)O)OS(=O)(=O)O [Lactobionic acid, octakis (H-sulfate) nonasodium salt] [Lactobionic acid, octakis (H-sulfate), nonasodium salt]	5 Wells	8 Wells	2 Wells
O=C(O)[C@H](OS(=O)(=O)O)[C@@H](OS(=O)(=O)O)[C@H](O[C@@H]1O[C@H](COS(=O)(=O)O)[C@H](OS(=O)(=O)O)[C@H](OS(=O)(=O)O)[C@H]1OS(=O)(=O)O)[C@@H](COS(=O)(=O)O)OS(=O)(=O)O [Lactobionic acid, octakis (H-sulfate), nonatrimethylamine sa] [Lactobionic acid, octakis (H-sulfate), nonatrimethylamine salt]	4 Wells	8 Wells	2 Wells
